{"source": "paper PMC4822137", "about": "“Proteasomes generate spliced epitopes by two different mechanisms and as efficiently as non-spliced epitopes” (Scientific Reports, 2016)", "tested_on": "CD8+ T cells from a HLA-A*03:01+ healthy donor", "experiment": "frequency of specific CD8+ T cells in micro-culture well #136", "format": "cell-based, human", "details": "after two rounds of stimulation with DC preloaded with 50 µM peptide; CD8/IFN-γ flow cytometry", "description": "Cell cultures. Cells were checked for mycoplasma contamination. LCLs are human B lymphocytes immortalized with Epstein Barr virus. T2 cell line is a human T cell leukemia/B cell line hybrid defective in TAP1/TAP2 (transporter associated with antigen […]) and β1i/β5i subunits. T2 cell line and erythrocytes contain only s-proteasomes, whereas spleen and LCLs posses proteasomes carrying mainly immuno-subunits 5,6. HeLa cells were cultivated in Iscove medium supplemented with 10% FCS, 1% L-glutamine and 1% penicillin (Biochrom). The HeLa 33/2 cell line constitutively expresses the three β5i, β1i and β2i immuno-subunits. It was maintained in Iscove medium supplemented with 10% FCS, 1% L-glutamine, 1% of a combination of penicillin and streptomycin as well as 2 µg/ml puromycin and 300 µg/ml hygromycin (PAA Laboratories).\nMa-Mel63a were established from tumor metastasis after informed consent of the patient. […] In this assay TNF-α release was measured by lysis of WEHI-13 cells. The frequency of the specific CD8+ T cells present in the responsive micro-cultures was determined by intracellular double staining for CD8 and IFN-γ using flow cytometry. […]\nwere analyzed for their capacity to secrete TNF-α upon re-stimulation with 50 µM of the same peptide in […]\na 6 hr assay. […] TNF-α was measured […]"}
{"substance": "[QLYPEW][RTK] [gp100^mel47–52/40–42]", "values": [{"measurement": "specific CD8+ T cells in well #136", "value": "~ 10%"}]}
